Experiments:
[1] = test system: redroot pigweed; test: Test A pre-/postemergence greenhouse test; type: in vivo, Amaranthus retroflexus; conditions: for Plant response rating, Pigweed: 0 to 100 scale where 0 is no effect and 100 is complete control; for Pigweed plant response rating: 0 to 100 scale
Summary of the method: (§1)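 Seeds sown in a loam soil–sand blend got a preemergence directed soil spray of compound in a non-phytotoxic solvent mixture containing surfactant. Postemergence sprays of the same formulation went at the same time onto plants 2–10 cm tall at the one- to two-leaf stage. Injury was scored visually against untreated controls after about ten days in the greenhouse.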

[2] = test system: woolly cupgrass; test: Test C pre-/postemergence test; type: in vivo, Eriochloa villosa
Excerpt: (§2) Seeds of plant species selected from blackgrass (Alopecurus myosuroides), downy brome (Bromus tectorum), green foxtail (Setaria viridis), Italian ryegrass (Lolium multiflorum), wheat (Triticum aestivum), wild oat (Avena fatua), catchweed bedstraw (Galium aparine), Russian thistle (Salsola kali), […] (Cynodon dactylon), Surinam grass (Brachiaria decumbens), cocklebur (Xanthium strumarium), corn (Zea mays), crabgrass (Digitaria sanguinalis), woolly cupgrass (Eriochloa villosa), giant foxtail (Setaria faberii), Goosegrass (Eleusin indica), johnsongrass (Sorghum halepense), kochia (Kochia scoparia), lambsquarters (Chenopodium album), morningglory (Ipomoea coccinea), eastern black nightshade (Solanum ptycanthum), yellow nutsedge (Cyperus esculentus), pigweed (Amaranthus retroflexus), common ragweed (Ambrosia elation), soybean (Glycine max), common (oilseed) sunflower (Helianthus annuus), and velvetleaf (Abutilon theophrasti) were planted and treated preemergence with test chemicals formulated in a non-phytotoxic solvent mixture which included a surfactant. At the same time, plants selected from these crop and weed species and also winter barley (Hordeum vulgare), canarygrass (Phalaris minor), and chickweed (Stellaria media) were treated with postemergence applications of some of the test chemicals formulated in the same manner. Plants ranged in height from 2 to 18 cm (1- to 4-leaf stage) for postemergence treatments. […] At time of treatment, test pots were flooded to 3 cm above the soil surface, treated by application of test compounds directly to the paddy water, and then maintained at that water depth for the duration of the test. […] A dash (-) response means no test result.

[3] = test system: rice; test: Test C flooded paddy test; type: in vivo, Oryza sativa; conditions: Flood
Summary of the method: (§3)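 Pots were flooded to 3 cm above the soil surface at treatment, compound applied directly to the paddy water, and that depth held throughout. Plants were kept in a greenhouse for 13 to 15 days, then visually rated against untreated controls.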

[4] = test system: yellow nutsedge; test: Test C pre-/postemergence test; type: in vivo, Cyperus esculentus
Excerpt: as §2

[5] = test system: duck salad; test: Test C flooded paddy test; type: in vivo, Heteranthera limosa; conditions: Flood
Summary of the method: as §3

[6] = test system: johnsongrass; test: Test C pre-/postemergence test; type: in vivo, Sorghum halepense
Excerpt: as §2

[7] = test system: giant foxtail; test: Test C pre-/postemergence test; type: in vivo, Setaria faberii
Excerpt: as §2

[8] = test system: wild oat; test: Test C pre-/postemergence test; type: in vivo, Avena fatua
Excerpt: as §2

[9] = test system: morningglory; test: Test C pre-/postemergence test; type: in vivo, Ipomoea coccinea
Excerpt: as §2

[10] = test system: downy brome; test: Test C pre-/postemergence test; type: in vivo, Bromus tectorum
Excerpt: as §2

[11] = test system: corn; test: Test C pre-/postemergence test; type: in vivo, Zea mays
Excerpt: as §2

[12] = test system: velvetleaf; test: Test C pre-/postemergence test; type: in vivo, Abutilon theophrasti
Excerpt: as §2

[13] = test system: wheat; test: Test A pre-/postemergence greenhouse test; type: in vivo, Triticum aestivum; conditions: for Plant response rating, Wheat: 0 to 100 scale where 0 is no effect and 100 is complete control; for Wheat plant response rating: 0 to 100 scale
Summary of the method: as §1

[14] = test system: wheat; test: Test C pre-/postemergence test; type: in vivo, Triticum aestivum
Excerpt: as §2

[15] = test system: velvetleaf; test: Test A pre-/postemergence greenhouse test; type: in vivo, Abutilon theophrasti; conditions: for Plant response rating, Velvetleaf: 0 to 100 scale where 0 is no effect and 100 is complete control; for Velvetleaf plant response rating: 0 to 100 scale
Summary of the method: as §1

[16] = Postemergence, 500 g ai/ha, 0 is no effect, 100 is complete control
[17] = Preemergence, 125 g ai/ha, 0 no effect, 100 complete control
[18] = 62 g ai/ha, Preemergence, scale 0 to 100
[19] = 125 g ai/ha, preemergence, scale 0 (no effect) to 100 (complete control)
[20] = Postemergence, 62 g ai/ha, scale 0 to 100, 0 no effect, 100 complete control
[21] = Postemergence, 125 g ai/ha, scale 0 to 100, 0 no effect, 100 complete control
[22] = Postemergence, 250 g ai/ha, scale 0 to 100, 0 no effect, 100 complete control
[23] = Preemergence, 31 g ai/ha, scale 0 to 100 (0 no effect, 100 complete control)
[24] = preemergence, 250 g ai/ha, scale 0 (no effect) to 100 (complete control)
[25] = 62 g ai/ha, scale 0 to 100 (0 no effect, 100 complete control)
[26] = 250 g ai/ha, scale 0 to 100, 0 no effect, 100 complete control, 13 to 15 days

CCn1nc(C(F)(F)F)c(CS(=O)(=O)c2cc(C)cc[n+]2[O-])c1OCC(F)(F)F [Compound 64]
90: Oat, Wild plant response rating [8, 19]
10: Plant response rating, Bromegrass, Downy [10, 21]
100: Plant response rating, Pigweed ([1]; Preemergence, 500 g ai/ha) | Cupgrass, Woolly plant response rating [2, 18] | Cupgrass, Woolly plant response rating [2, 19] | Cupgrass, Woolly plant response rating [2, 24] | Johnsongrass plant response rating [6, 19] | Johnsongrass plant response rating [6, 24] | Foxtail, Giant plant response rating [7, 18] | Foxtail, Giant plant response rating [7, 19] | Foxtail, Giant plant response rating [7, 24] | Bromegrass, Downy plant response rating [10, 24] | Velvetleaf plant response rating [12, 18] | Velvetleaf plant response rating [12, 19] | Velvetleaf plant response rating [12, 24] | Wheat plant response rating [14, 24] | Plant response rating, Velvetleaf ([15]; Preemergence, 500 g ai/ha)
55: Plant response rating, Johnsongrass [6, 23] | Morningglory plant response rating [9, 19]
80: Pigweed plant response rating [1, 16] | Oat, Wild plant response rating [8, 18] | Morningglory plant response rating [9, 24]
60: Plant response rating, Cupgrass, Woolly [2, 23] | Plant response rating, Rice [3, 26] | Wheat plant response rating [13, 16] | Plant response rating, Velvetleaf ([15]; Postemergence, 125 g ai/ha)
98: Nutsedge, Yellow plant response rating [4, 18] | Nutsedge, Yellow plant response rating [4, 19] | Nutsedge, Yellow plant response rating [4, 24] | Johnsongrass plant response rating [6, 18] | Oat, Wild plant response rating [8, 24]
95: Corn plant response rating [11, 18] | Corn plant response rating [11, 19] | Corn plant response rating [11, 24]
0: Plant response rating (0 to 100), Cupgrass, Woolly ([2]; Postemergence, 31 g ai/ha) | Plant response rating, Cupgrass, Woolly [2, 20] | Plant response rating, Cupgrass, Woolly [2, 21] | Plant response rating, Rice [3, 25] | Plant response rating (0 to 100), Nutsedge, Yellow ([4]; Postemergence, 31 g ai/ha) | Plant response rating, Nutsedge, Yellow [4, 20] | Plant response rating, Nutsedge, Yellow [4, 21] | Plant response rating, Nutsedge, Yellow [4, 22] | Plant response rating, Nutsedge, Yellow [4, 23] | Plant response rating (0 to 100), Johnsongrass ([6]; Postemergence, 31 g ai/ha) | Plant response rating, Johnsongrass [6, 20] | Plant response rating, Johnsongrass [6, 21] | Plant response rating, Johnsongrass [6, 22] | Plant response rating (0 to 100), Foxtail, Giant ([7]; Postemergence, 31 g ai/ha) | Plant response rating, Foxtail, Giant [7, 20] | Plant response rating, Foxtail, Giant [7, 21] | Plant response rating (0 to 100), Oat, Wild ([8]; Postemergence, 31 g ai/ha) | Plant response rating (0 to 100), Morningglory ([9]; Postemergence, 31 g ai/ha) | Plant response rating, Morningglory [9, 20] | Plant response rating, Morningglory [9, 21] | Plant response rating, Morningglory [9, 22] | Plant response rating, Morningglory [9, 23] | Plant response rating (0 to 100), Bromegrass, Downy ([10]; Postemergence, 31 g ai/ha) | Plant response rating, Bromegrass, Downy [10, 20] | Plant response rating (0 to 100), Corn ([11]; Postemergence, 31 g ai/ha) | Plant response rating, Corn [11, 20] | Plant response rating, Corn [11, 21] | Plant response rating, Corn [11, 22] | Plant response rating, Corn [11, 23] | Plant response rating (0 to 100), Velvetleaf ([12]; Postemergence, 31 g ai/ha) | Plant response rating (0 to 100), Velvetleaf ([12]; Postemergence, 62 g ai/ha) | Plant response rating, Velvetleaf [12, 21] | Plant response rating (0 to 100), Wheat ([14]; Postemergence, 31 g ai/ha) | Plant response rating, Wheat [14, 23]
40: Plant response rating, Velvetleaf [12, 22] | Wheat plant response rating [13, 17]
45: Plant response rating, Foxtail, Giant [7, 22] | Plant response rating, Velvetleaf [12, 23]
70: Plant response rating, Pigweed ([1]; Postemergence, 125 g ai/ha) | Plant response rating, Wheat ([13]; Preemergence, 500 g ai/ha) | Velvetleaf plant response rating [15, 16]
30: Plant response rating, Oat, Wild [8, 20] | Bromegrass, Downy plant response rating [10, 18] | Plant response rating, Bromegrass, Downy [10, 23] | Wheat plant response rating [14, 19]
65: Plant response rating, Wheat [14, 21] | Plant response rating, Wheat [14, 22]
75: Plant response rating, Ducksalad [5, 26]
50: Pigweed plant response rating [1, 17] | Plant response rating, Cupgrass, Woolly [2, 22] | Plant response rating, Oat, Wild [8, 21] | Plant response rating, Oat, Wild [8, 23] | Morningglory plant response rating [9, 18] | Plant response rating, Wheat ([13]; Postemergence, 125 g ai/ha) | Plant response rating (0 to 100), Wheat ([14]; Postemergence, 62 g ai/ha) | Velvetleaf plant response rating [15, 17]
85: Plant response rating, Foxtail, Giant [7, 23] | Plant response rating, Oat, Wild [8, 22] | Bromegrass, Downy plant response rating [10, 19]
20: Plant response rating, Ducksalad [5, 25] | Plant response rating, Bromegrass, Downy [10, 22] | Wheat plant response rating [14, 18]

Cn1nc(C(F)(F)F)c(C[S+]([O-])c2cccc[n+]2[O-])c1OCC(F)(F)C(F)(F)F (centres unmarked) [Compound 78]
90: Plant response rating, Velvetleaf ([15]; Preemergence, 500 g ai/ha)
70: Plant response rating, Rice [3, 26] | Plant response rating, Ducksalad [5, 26] | Velvetleaf plant response rating [15, 16]
60: Pigweed plant response rating [1, 16] | Wheat plant response rating [13, 16]
10: Pigweed plant response rating [1, 17] | Plant response rating, Rice [3, 25] | Plant response rating, Wheat [14, 21] | Plant response rating, Wheat [14, 22]
45: Plant response rating, Johnsongrass [6, 22] | Plant response rating, Foxtail, Giant [7, 21] | Plant response rating, Foxtail, Giant [7, 22]
20: Plant response rating, Cupgrass, Woolly [2, 22] | Plant response rating, Corn [11, 22] | Plant response rating, Velvetleaf [12, 22]
0: Plant response rating (0 to 100), Cupgrass, Woolly ([2]; Postemergence, 31 g ai/ha) | Plant response rating, Cupgrass, Woolly [2, 20] | Plant response rating, Cupgrass, Woolly [2, 21] | Plant response rating (0 to 100), Nutsedge, Yellow ([4]; Postemergence, 31 g ai/ha) | Plant response rating, Nutsedge, Yellow [4, 20] | Plant response rating, Nutsedge, Yellow [4, 21] | Plant response rating, Nutsedge, Yellow [4, 22] | Plant response rating (0 to 100), Johnsongrass ([6]; Postemergence, 31 g ai/ha) | Plant response rating, Johnsongrass [6, 20] | Plant response rating, Johnsongrass [6, 21] | Plant response rating (0 to 100), Foxtail, Giant ([7]; Postemergence, 31 g ai/ha) | Plant response rating, Foxtail, Giant [7, 20] | Plant response rating (0 to 100), Oat, Wild ([8]; Postemergence, 31 g ai/ha) | Plant response rating, Oat, Wild [8, 20] | Plant response rating, Oat, Wild [8, 21] | Plant response rating, Oat, Wild [8, 22] | Plant response rating (0 to 100), Morningglory ([9]; Postemergence, 31 g ai/ha) | Plant response rating, Morningglory [9, 20] | Plant response rating, Morningglory [9, 21] | Plant response rating, Morningglory [9, 22] | Plant response rating (0 to 100), Bromegrass, Downy ([10]; Postemergence, 31 g ai/ha) | Plant response rating, Bromegrass, Downy [10, 20] | Plant response rating, Bromegrass, Downy [10, 21] | Plant response rating, Bromegrass, Downy [10, 22] | Plant response rating (0 to 100), Corn ([11]; Postemergence, 31 g ai/ha) | Plant response rating, Corn [11, 20] | Plant response rating, Corn [11, 21] | Plant response rating (0 to 100), Velvetleaf ([12]; Postemergence, 31 g ai/ha) | Plant response rating (0 to 100), Velvetleaf ([12]; Postemergence, 62 g ai/ha) | Plant response rating, Velvetleaf [12, 21] | Plant response rating (0 to 100), Wheat ([14]; Postemergence, 31 g ai/ha) | Plant response rating (0 to 100), Wheat ([14]; Postemergence, 62 g ai/ha) | Velvetleaf plant response rating [15, 17]
50: Plant response rating, Pigweed ([1]; Postemergence, 125 g ai/ha)
30: Plant response rating, Ducksalad [5, 25] | Plant response rating, Wheat ([13]; Postemergence, 125 g ai/ha) | Wheat plant response rating [13, 17] | Plant response rating, Velvetleaf ([15]; Postemergence, 125 g ai/ha)
100: Plant response rating, Pigweed ([1]; Preemergence, 500 g ai/ha) | Plant response rating, Wheat ([13]; Preemergence, 500 g ai/ha)
